Measurements taken from US20160166631A1, “NUTRACEUTICAL COMBINATION FOR PREVENTION AND TREATMENT OF TYPE 2 DIABETES” (priority 2014, published 2016).

Test system: Type 2 diabetes patients
Experiment: Clinical trials: DiabetainC co-administered with Metformin or other anti-diabetes medications (Hb A1c, fasting blood glucose)
Type: in vivo, human
Procedure: Clinical trials have shown that “DiabetainC” supplements in accordance with this disclosure, when administered to Type 2 diabetes patients, lowers Hb A1c by an average of 1.7% when co-administered with Metformin, as compared with a 1.2% lowering of Hb A1c when Metformin is used by itself. This is a significant improvement. A 0.5% to 1% lowering of Hb A1c correlates with a 20% reduction in morbidity.
Clinical trials have shown an advantageous decrease in fasting blood glucose (FBG) of 72 mg/dL when co-administered with Metformin, as compared with a lowering of 48 mg/dL when Metformin is administered alone. […] These improvements are significant, as every 15 mg/dL to 40 mg/dL decrease in FBG reduces diabetes related heart diseases up to 50%.

CN(C)C(=N)N=C(N)N [Metformin]
lowering of fasting blood glucose (FBG) (Metformin administered alone): 48 mg/dL | lowering of Hb A1c (Type 2 diabetes patients, Metformin used by itself): 1.2%
